Assay results from patent publication US9212348B2, “Method for producing hematopoietic stem cells using pyrazole compounds” (NISSAN CHEMICAL INDUSTRIES, LTD., priority 2010, dated 2015).

Tested on: not given
Assay: not given
Details: not given

melting point [°C] | Compound
149 to 151 | CCCCCCc1ccc(-c2cnn(C(C)(C)Cc3ccc(C)cc3)c2O)cc1 [Compound No. 4-90, 4-(4-Hexylphenyl)-1-(2-methyl-1-(p-tolyl)propan-2-yl)-1H-pyrazol-5-ol]
140 to 142 | CCCCCCc1ccc(-c2c(C#N)nn(C(C)(C)Cc3ccc(C)cc3)c2O)cc1 [Compound No. 4-86, 4-(4-Hexylphenyl)-5-hydroxy-1-(2-methyl-1-(p-tolyl)propan-2-yl)-1H-pyrazole-3-carbonitrile]

Tested on: CD34+CD38- cells
Assay: Assay Example 3: expansion of CD34+CD38- cells using human cord blood-derived CD34+ cells (Table 22)
Format: cell-based
Details: based on number of CD34+CD38- cells in absence of compound; 0.01 to 10 μg/mL compound; 100 ng/mL SCF and 20 ng/mL TPO; 7 days
Method: Human cord blood-derived CD34^+ cells purchased from the same supplier as in Assay Example 1 were plated on a 24-well plate (Corning) (10000 cells/1 mL/well). As the culture medium, StemSpan SFEM (StemCell Technologies) containing 100 ng/mL SCF (Wako Pure Chemical Industries) in terms of final concentration and 20 ng/mL TPO (PeproTech) in terms of final concentration was used, and Compounds Nos. 1-01 to 4-91 dissolved in dimethyl sulfoxide were added in an amount of 0.1% (v/v) to a final concentration of 0.01 to 10 μg/mL. As a negative control, the medium containing 0.1% (v/v) dimethyl sulfoxide was used.
After the cells were incubated in liquid culture at 37° C. for 7 days in a CO2 incubator (5% CO2), the number of viable cells was counted by trypan blue assay. The number of CD34^+CD38^− cells was calculated in the same manner as in Assay Example 1.

Compound | Expansion efficiency
CCCCCCc1ccc(-c2c(C#N)nn(C(C)(C)Cc3ccc(C)cc3)c2O)cc1 [Compound No. 4-86, 4-(4-Hexylphenyl)-5-hydroxy-1-(2-methyl-1-(p-tolyl)propan-2-yl)-1H-pyrazole-3-carbonitrile] | C (C for expansion efficiencies of at least 1.5 and less than 3)
CC(C)(Cc1ccccc1)N1N=C(c2ccccc2)CC1=O [Compound No. 3-16, 1-(2-methyl-1-phenylpropan-2-yl)-3-phenyl-1H-pyrazol-5(4H)-one] | A (A for expansion efficiencies of 4 or greater)
CON=C(C)c1c(C(C)C)nn(C(C)(C)Cc2ccccc2)c1O [Compound No. 4-89, 1-(5-Hydroxy-3-isopropyl-1-(2-methyl-1-phenylpropan-2-yl)-1H-pyrazol-4-yl)ethanone O-methyl oxime] | C (C for expansion efficiencies of at least 1.5 and less than 3)
CCCCCCc1ccc(-c2c(C(C)C)nn(C(C)(C)Cc3ccc(C)cc3)c2O)cc1 [Compound No. 3-07, 4-(4-hexylphenyl)-3-isopropyl-1-(2-methyl-1-p-tolylpropan-2-yl)-1H-pyrazol-5-ol] | A (A for expansion efficiencies of 4 or greater)
CC(C)C1=NN(C(C)(C)Cc2ccccc2)C(=O)C1Br (stereo not shown) [Compound No. 3-47, 4-bromo-3-isopropyl-1-(2-methyl-1-phenylpropan-2-yl)-1H-pyrazol-5(4H)-one] | C (C for expansion efficiencies of at least 1.5 and less than 3)
COC(=O)CC1=NN(C(C)(C)c2ccccc2)C(=O)C1 [Compound No. 4-01, methyl 2-(5-oxo-1-(2-phenylpropan-2-yl)-4,5-dihydro-1H-pyrazol-3-yl)acetate] | C (C for expansion efficiencies of at least 1.5 and less than 3)
CC(C)C1=NN(C(C)(C)Cc2ccc(Br)cc2)C(=O)C1 [Compound No. 3-12, 1-(1-(4-bromophenyl)-2-methylpropan-2-yl)-3-isopropyl-1H-pyrazol-5(4H)-one] | B (B for expansion efficiencies of at least 3 and less than 4)
COC(=O)c1ccc(-c2c(C(C)C)nn(C(C)(C)Cc3ccccc3)c2O)cc1 [Compound No. 4-23, methyl 4-(5-hydroxy-3-isopropyl-1-(2-methyl-1-phenylpropan-2-yl)-1H-pyrazol-4-yl)benzoate] | A (A for expansion efficiencies of 4 or greater)
